# Assay results published in paper PMC11110727, “Exploiting thiol-functionalized benzosiloxaboroles for achieving diverse substitution patterns – synthesis, characterization and biological evaluation of promising antibacterial agents” (RSC Medicinal Chemistry, 2024).
# Columns and labels:
# E. coli ATCC 25922 = assay: Antibacterial activity: MIC/MBC, MIC with PAβN, disc-diffusion; assay type: cell-based, Escherichia coli; conditions: E. coli ATCC 25922; for diameter of inhibition zone: (-) = zone not observed, paper discs 9 mm; for -fold reduction of MIC in the presence of PAβN: PAβN 20 μg mL^−1, MHB + 1 mM MgSO4; for MIC: read-out: MIC
# Procedure: (§1) Direct antimicrobial activity was determined against the following standard strains: (1) Gram-positive cocci: methicillin-sensitive Staphylococcus aureus ATCC 6538P (MSSA), methicillin-resistant S. aureus subsp. aureus ATCC 43300 (MRSA), S. epidermidis ATCC 12228, Enterococcus faecium ATCC 6057, E. faecalis ATCC 29212, Bacillus subtilis ATCC 6633; (2) Gram-negative bacteria from Enterobacteriales order: Klebsiella pneumoniae ATCC 13883, Escherichia coli ATCC 25922, Enterobacter cloacae DSM 6234, Proteus mirabilis ATCC 12453, Serratia marcescens ATCC 13880; (3) Gram-negative non-fermentative rods: Acinetobacter baumannii ATCC 19606, Pseudomonas aeruginosa ATCC 27853, Stenotrophomonas maltophilia ATCC 12714, S. maltophilia ATCC 13637, Burkholderia cepacia ATCC 25416, Bordetella bronchiseptica ATCC 4617; (4) yeasts: Candida albicans ATCC 90028, C. krusei ATCC 6258, C. parapsilosis ATCC 22019, C. tropicalis (Castellani) Berkhout ATCC 750, C. tropicalis IBA 171, C. guilliermondii IBA 155, and Saccharomyces cerevisiae ATCC 9763. Moreover, 5 clinical strains of methicillin-resistant S. aureus were also included: NMI 664 K, NMI 1576 K, NMI 1712 K, NMI 1991 K, and NMI 2541 K. All strains were stored at −80 °C. Prior to testing, each bacterial strain was subcultured twice on tryptic soy agar TSA (bioMerieux) medium and yeast strains on Sabouraud dextrose agar (bioMerieux) for 24–48 h at 30 °C to ensure viability. The antimicrobial activity was evaluated as previously described[26] by the disc-diffusion method and the MIC determination assays according to the EUCAST (ref. [71] and [72]) and CLSI (ref. [53] and [73]) recommendations. Assessment of bactericidal (MBC) and fungicidal (MFC) activities was performed according to the CLSI recommendations.[54,74] […] The new benzosiloxaboroles were dissolved in DMSO (Sigma).
# (§2) Considering that the MDR efflux pumps often contribute to Gram-negative rod resistance, the MIC values of studied agents, with or without the pump inhibitor, PAβN (20 μg mL^−1) (Sigma), were determined.[75] The MIC was determined using Mueller–Hinton II broth medium (MHB) (Becton Dickinson) by the broth microdilution method, according to the CLSI guideliness.[53] To minimize the influence of PAβN on the destabilization of bacterial cell covers, the tests were conducted in the presence of 1 mM MgSO4 (Sigma).[76] At least a 4-fold reduction in the MIC value after the addition of PAβN was considered significant.[56,77]
# K. pneumoniae ATCC 13883 = assay: as above; assay type: cell-based, Klebsiella pneumoniae; conditions: K. pneumoniae ATCC 13883; for -fold reduction of MIC in the presence of PAβN: PAβN 20 μg mL^−1, MHB + 1 mM MgSO4; for MIC: Klebsiella pneumoniae, ATCC13883, read-out: MIC
# Procedure: as §1, §2
# P. mirabilis ATCC 12453 = assay: as above; assay type: cell-based, Proteus mirabilis; conditions: P. mirabilis ATCC 12453; for MIC: Proteus mirabilis, ATCC12453, read-out: MIC
# Procedure: as §1, §2
# E. cloacae DSM 6234 = assay: as above; assay type: cell-based, Enterobacter cloacae; conditions: E. cloacae DSM 6234; for -fold reduction of MIC in the presence of PAβN: PAβN 20 μg mL^−1, MHB + 1 mM MgSO4; for MIC: Enterobacter cloacae, DSM6234, read-out: MIC
# Procedure: as §1, §2
# S. marcescens ATCC 13880 = assay: as above; assay type: cell-based, Serratia marcescens; conditions: S. marcescens ATCC 13880; for MIC: Serratia marcescens, ATCC13880, read-out: MIC
# Procedure: as §1, §2
# B. cepacia ATCC 25416 = assay: Antibacterial activity: MIC/MBC, disc-diffusion; assay type: cell-based, Burkholderia cepacia; conditions: Burkholderia cepacia, ATCC25416; B. cepacia ATCC 25416; read-out: MIC
# Procedure: as §1, §2
# C. krusei ATCC 6258 = assay: Antifungal activity: MIC/MFC, disc-diffusion; assay type: cell-based; conditions: for diameter of inhibition zone: C. krusei ATCC 6258, (-) = zone not observed, paper discs 9 mm; for MIC: Pichia kudriavzevii, ATCC6258, read-out: MIC
# Procedure: as §1
# [1] = test system: C. guilliermondii IBA 155; assay: Antifungal activity: MIC/MFC, disc-diffusion; assay type: cell-based; conditions: for diameter of inhibition zone: (-) = zone not observed, paper discs 9 mm; for MIC: read-out: MIC
# Procedure: (§3) Direct antimicrobial activity was determined against the following standard strains: (1) Gram-positive cocci: methicillin-sensitive Staphylococcus aureus ATCC 6538P (MSSA), methicillin-resistant S. aureus subsp. aureus ATCC 43300 (MRSA), S. epidermidis ATCC 12228, Enterococcus faecium ATCC 6057, E. faecalis ATCC 29212, Bacillus subtilis ATCC 6633; (2) Gram-negative bacteria from Enterobacteriales order: Klebsiella pneumoniae ATCC 13883, Escherichia coli ATCC 25922, Enterobacter cloacae DSM 6234, Proteus mirabilis ATCC 12453, Serratia marcescens ATCC 13880; (3) Gram-negative non-fermentative rods: Acinetobacter baumannii ATCC 19606, Pseudomonas aeruginosa ATCC 27853, Stenotrophomonas maltophilia ATCC 12714, S. maltophilia ATCC 13637, Burkholderia cepacia ATCC 25416, Bordetella bronchiseptica ATCC 4617; (4) yeasts: Candida albicans ATCC 90028, C. krusei ATCC 6258, C. parapsilosis ATCC 22019, C. tropicalis (Castellani) Berkhout ATCC 750, C. tropicalis IBA 171, C. guilliermondii IBA 155, and Saccharomyces cerevisiae ATCC 9763. Moreover, 5 clinical strains of methicillin-resistant S. aureus were also included: NMI 664 K, NMI 1576 K, NMI 1712 K, NMI 1991 K, and NMI 2541 K. All strains were stored at −80 °C. Prior to testing, each bacterial strain was subcultured twice on tryptic soy agar TSA (bioMerieux) medium and yeast strains on Sabouraud dextrose agar (bioMerieux) for 24–48 h at 30 °C to ensure viability. The antimicrobial activity was evaluated as previously described[26] by the disc-diffusion method and the MIC determination assays according to the EUCAST (ref. [71] and [72]) and CLSI (ref. [53] and [73]) recommendations. Assessment of bactericidal (MBC) and fungicidal (MFC) activities was performed according to the CLSI recommendations.[54,74] The following reference agents were used: fluconazole (in the case of fungi), linezolid (for Gram-positive bacteria), and nitrofurantoin (for Gram-negative rods). The new benzosiloxaboroles were dissolved in DMSO (Sigma).
# [2] = test system: C. parapsilosis ATCC 22019; assay: Antifungal activity: MIC/MFC, disc-diffusion; assay type: cell-based; conditions: for MIC: Lodderomyces parapsilosis, ATCC22019, read-out: MIC
# Procedure: as §3
# C. tropicalis ATCC 750 = assay: Antifungal activity: MIC/MFC, disc-diffusion; assay type: cell-based; conditions: for MIC: Candida tropicalis, ATCC750, read-out: MIC
# Procedure: as §3
# C. tropicalis IBA 171 = assay: Antifungal activity: MIC/MFC, disc-diffusion; assay type: cell-based; conditions: for MIC: Candida tropicalis, IBA171, read-out: MIC
# Procedure: as §3
# [3] = Meyerozyma guilliermondii, IBA155
# [4] = (-) = zone not observed, paper discs 9 mm
# [5] = PAβN 20 μg mL^−1, MHB + 1 mM MgSO4
SMILES,diameter of inhibition zone (E. coli ATCC 25922) [mm],"MIC (E. coli ATCC 25922; Escherichia coli, ATCC25922) [mg/L]",MIC (K. pneumoniae ATCC 13883) [mg/L],MIC (P. mirabilis ATCC 12453) [mg/L],MIC (E. cloacae DSM 6234) [mg/L],MIC (S. marcescens ATCC 13880) [mg/L],MIC (B. cepacia ATCC 25416) [mg/L],diameter of inhibition zone (C. krusei ATCC 6258) [mm],MIC (C. krusei ATCC 6258) [mg/L],"MIC [1, 3] [mg/L]",MIC [2] [mg/L],MIC (C. tropicalis ATCC 750) [mg/L],MIC (C. tropicalis IBA 171) [mg/L],further results
"COC(=O)CCSc1ccc2c(c1F)[Si](C)(C)OB2O [Compound 4, Methyl 3-((7-fluoro-3-hydroxy-1,1-dimethyl-1,3-dihydrobenzo[c][1,2,5]oxasilaborol-6-yl)thio)propanoate]",15,400,> 400,> 400,> 400,> 400,> 400,12,200,400,400,> 400,> 400,-fold reduction of MIC in the presence of PAβN (E. coli ATCC 25922): 8 -fold; -fold reduction of MIC in the presence of PAβN (K. pneumoniae ATCC 13883): 8 -fold; -fold reduction of MIC in the presence of PAβN (E. cloacae DSM 6234): 8 -fold; diameter of inhibition zone ([1]; C. guilliermondii IBA 155): 12 mm
"C[Si]1(C)OB(O)c2cc(F)c(S)c(F)c21 [Compound 1e, 5,7-Difluoro-6-mercapto-1,1-dimethylbenzo[c][1,2,5]oxasilaborol-3(1H)-ol]",–,> 400,> 400,> 400,> 400,> 400,> 400,13,400,> 400,400,400,200,–
"CC(=O)CSc1ccc2c(c1F)[Si](C)(C)OB2O [Compound 22, 1-((7-Fluoro-3-hydroxy-1,1-dimethyl-1,3-dihydrobenzo[c][1,2,5]oxasilaborol-6-yl)thio)propan-2-one]",–,> 400,> 400,> 400,> 400,> 400,> 400,12,200,> 400,> 400,> 400,> 400,–
"C[Si]1(C)OB(O)c2cc(F)c(SCCC(=O)N3CCOCC3)c(F)c21 [Compound 8, 3-((5,7-Difluoro-3-hydroxy-1,1-dimethyl-1,3-dihydrobenzo[c][1,2,5]oxasilaborol-6-yl)thio)-1-morpholinopropan-1-one]",–,> 400,> 400,> 400,> 400,> 400,> 400,–,> 400,> 400,> 400,> 400,> 400,–
"C[Si]1(C)OB(O)c2ccc(SC3CC(=O)NC3=O)c(F)c21 (stereo not drawn) [Compound 13, 3-((7-Fluoro-3-hydroxy-1,1-dimethyl-1,3-dihydrobenzo[c][1,2,5]oxasilaborol-6-yl)thio)pyrrolidine-2,5-dione]",19,25,200,400,400,100,> 400,–,> 400,> 400,> 400,> 400,> 400,"MBC (E. coli ATCC 25922; Escherichia coli, ATCC25922): 50 mg/L; diameter of inhibition zone (K. pneumoniae ATCC 13883; [4]): 19 mm; -fold reduction of MIC in the presence of PAβN (K. pneumoniae ATCC 13883): 4 -fold; diameter of inhibition zone (P. mirabilis ATCC 12453; [4]): 18 mm; -fold reduction of MIC in the presence of PAβN (P. mirabilis ATCC 12453; [5]): 4 -fold; -fold reduction of MIC in the presence of PAβN (E. cloacae DSM 6234): 4 -fold; diameter of inhibition zone (S. marcescens ATCC 13880; [4]): 29 mm; -fold reduction of MIC in the presence of PAβN (S. marcescens ATCC 13880; [5]): 2 -fold"
"C[Si]1(C)OB(O)c2ccc(SCCS(=O)(=O)c3ccccc3)c(F)c21 [Compound 21, 7-Fluoro-1,1-dimethyl-6-((2-(phenylsulfonyl)ethyl)thio)benzo[c][1,2,5]oxasilaborol-3(1H)-ol]",11,> 400,> 400,> 400,> 400,> 400,> 400,–,> 400,> 400,400,> 400,400,-fold reduction of MIC in the presence of PAβN (E. coli ATCC 25922): 16 -fold
"C[Si]1(C)OB(O)c2ccc(SC3CC(=O)N(c4ccc(Br)c(C(F)(F)F)c4)C3=O)c(F)c21 (stereo not drawn) [Compound 17, 1-(4-Bromo-3-(trifluoromethyl)phenyl)-3-((7-fluoro-3-hydroxy-1,1-dimethyl-1,3-dihydrobenzo[c][1,2,5]oxasilaborol-6-yl)thio)pyrrolidine-2,5-dione]",–,> 200,> 200,> 200,> 200,> 200,> 200,18,100,50,50,100,200,"diameter of inhibition zone ([1]; C. guilliermondii IBA 155): 27 mm; MFC ([1]; Meyerozyma guilliermondii, IBA155, C. guilliermondii IBA 155): 200 mg/L; diameter of inhibition zone ([2]; C. parapsilosis ATCC 22019, (-) = zone not observed, paper discs 9 mm): 22 mm; diameter of inhibition zone (C. tropicalis ATCC 750; C. tropicalis ATCC 750, (-) = zone not observed, paper discs 9 mm): 14 mm; diameter of inhibition zone (C. tropicalis IBA 171; C. tropicalis IBA 171, (-) = zone not observed, paper discs 9 mm): 16 mm"
